Reference: PubChem BioAssay AID540264 (Southern Research Specialized Biocontainment Screening …, 2011)
pIC50: −log10 of the molar value. Values joined by “and” are separate entries in the source; they are usually repeats but may differ in a detail not shown here. Equal entries are not always repeated. Active and inactive are the calls of the source.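 How the source made its calls: active means CPE inhibition of 50% or more; inactive means the rest.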

Tested on: HEp-2 RSV Long CPE inhibition, luminescence
Assay: protection of HEp-2 cells from RSV killing – RSV Long, luminescence, synthesized compounds, set 11, dose response (AID 540264)
Conditions: not given
`Cc1ccc(Cn2c(=O)n(Cc3ccc(C(=O)NCCCOC(C)C)cc3)c(=O)c3ccccc32)cc1` gave a pIC50 of 5.78.
`Cc1ccc(Cn2c(=O)n(Cc3ccc(C(=O)Nc4ccncc4)cc3)c(=O)c3ccccc32)cc1` showed a pIC50 of 5.20.
Work on `COCCCNC(=O)c1ccc(Cn2c(=O)c3ccccc3n(Cc3cccc(Br)c3)c2=O)cc1` yielded a pIC50 of 5.67.
Compound `COCCCNC(=O)c1ccc(Cn2c(=O)c3ccccc3n(Cc3ccc(F)cc3)c2=O)cc1` has a pIC50 of 5.30.
In the case of `Cc1ccc(Cn2c(=O)n(Cc3ccc(C(=O)NC(C)(C)C)cc3)c(=O)c3ccccc32)cc1`, the pIC50 was 5.74.
For `CCOCCCNC(=O)c1ccc(Cn2c(=O)c3ccccc3n(Cc3ccc(C)cc3)c2=O)cc1`, the pIC50 was 5.76.
For `Cc1ccc(C)c(NC(=O)[C@@H]2CCCN2S(=O)(=O)c2cccc3cccnc23)c1`, the pIC50 was 5.82 and 5.77.
`Cc1ccc(Cn2c(=O)n(Cc3ccc(C(=O)NCCCN(C)C)cc3)c(=O)c3ccccc32)cc1` showed a pIC50 of 5.03.

Tested on: not listed separately
Assay: as above
Conditions: HEp-2 RSV Long CPE inhibition, luminescence; at 200 µM (top of the series)
With `COCCCNC(=O)c1ccc(Cn2c(=O)c3cc(Cl)ccc3n(Cc3ccc(C)cc3)c2=O)cc1` the CPE inhibition was 5.48% (inactive).
For `COCCCNC(=O)c1ccc(Cn2c(=O)c3ccccc3n(Cc3ccccc3Br)c2=O)cc1`, the CPE inhibition was 0.32% (inactive).
In the case of `COCCCNC(=O)c1ccc(Cn2c(=O)c3ccccc3n(Cc3ccccc3F)c2=O)cc1`, the CPE inhibition was 1.77% (inactive).
